We go through one compound from patent US8912162B2, “Parenteral formulations of elacytarabine derivatives” (Clavis Pharma ASA, priority 2010, dated 2014).

Data set [1] in a line: Solubility of elacytarabine in water, phosphate buffer and soybean oil based emulsions. Format: physicochemical. The text has this:
Nevertheless, formulation of a therapeutically effective amount of the poorly soluble derivatives of formula (I) into a pharmaceutical composition suitable for parenteral administration represents a problem. For the sake of intravenous administration of the said derivatives, the composition of the excipients should be selected so that the said derivatives are solubilised. The cytarabine derivatives of formula (I) are amphiphilic and have poor solubility both in water and in oils. This limits the choice of potential excipients that can solubilise them.

Data set [2] deals with acute myeloid leukemia (AML). The experiment in a line: Phase II study of single agent elacytarabine as second salvage therapy. The data set is classed as in vivo, patients. The protocol:
The formulation described in example 1 was administered to 61 patients in a phase II study of single agent elacytarabine as second salvage therapy for acute myeloid leukemia (AML). […] The response rate was 15%. The median overall survival was 5.3 months versus 1.5 months in the historical control. The median survival for the responders was 13.5 months. The 6 month survival rate was 44%.

Data set [3] is described as follows: Plasma concentration of elacytarabine, Ara-C and Ara-U in patients (FIG. 2). Format: in vivo. The note with it: average values for 61 patients. The text has this: FIG. 2: Plasma concentration of elacytarabine, Ara-C and Ara-U (deamination metabolite of Ara-C), average values for 61 patients.
Data set [4] deals with Cis-platin resistant cells (NHIK 3025/DDP). The note with it: found earlier; cited from earlier work.
The test system of data set [5] is MDR resistant cells (A549). The note with it: A549, found earlier; cited from earlier work.

As usually defined, the solubility is how much of the substance goes into solution per volume. Regarding `CCCCCCCC/C=C/CCCCCCCC(=O)OC[C@H]1O[C@@H](n2ccc(N)nc2=O)[C@@H](O)[C@@H]1O` [elacytarabine, 5′-O-(trans-9″-octadecenoyl)-1-β-D-arabinofuranosylcytosine], the solubility is below 1 µg/mL in data set [1] (aqueous buffer, phosphate buffer pH 7.4 at 25° C.) and below 0.1 µg/mL in data set [1] (deionised water, 25 °C, water). Besides, the “dissolution in soybean oil based emulsions” value in data set [1] (earlier formulation studies) is listed as “did not dissolve appropriately”. The tolerability entry in data set [2] (also by elderly patients) is “well tolerated”. Also, the side effects result in data set [2] (phase II AML patients) was “predictable and manageable”. The “exposure to elacytarabine compared to cytarabine (Ara-C)” value in data set [3] is listed as at least 10 fold. For the same compound, the “effect against resistant cells compared with corresponding non-resistant cell line” value in data set [4] and in data set [5] was “same effect” throughout.
